From patent US20230158108A1 (priority 2020, published 2023)
Entries after “also recorded” stand apart in the source; their conditions may differ. Read-outs that look alike come from different tables or passages of the source.

Columns and labels:
[1] = test system: PMNs isolated from healthy adults; assay: poly (I:C)-induced NETosis in PMNs from healthy adults; type: cell-based, human; settings: poly (I:C) 1 μg/mL, 2 hours
[2] = test system: PMNs isolated from COVID-19 patients; assay: poly (I:C)-induced NETosis in PMNs from COVID-19 patients; type: cell-based, human; settings: poly (I:C) 1 μg/mL, 2 hours
[3] = test system: PMNs isolated from healthy adults; assay: NET formation in healthy adult PMNs induced by COVID-19 patient plasma (confocal microscopy, cell-free DNA fluorescence assay); type: cell-based, human; settings: peptide 1 nM, 1-hour preincubation, undiluted COVID-19 plasma 2 hours
healthy neutrophils = type: cell-based, human; settings: healthy neutrophils pretreated
[4] = test system: LPS-induced acute lung inflammation; type: in vivo; settings: LPS-induced acute lung inflammation model; nNIF given IP
Text: Thus, nNIF can reduce NETs similar to an FDA approved drug, such as dexamethasone.

experimental sepsis = settings: models of experimental sepsis; cited from earlier work

Substance | NETosis induction in vitro [1] | Increase in NETosis compared to elevated baseline levels [2] | NETosis induced in vitro by COVID-19 plasma [3] | Inhibition of COVID-19 plasma induced NETosis (healthy neutrophils; high-inducing pooled plasma (>3-fold induction)) | Inhibition of COVID-19 plasma induced NETosis (healthy neutrophils; medium-inducing pooled plasma (2-3 fold induction)) | In vivo efficacy: NETs or cells undergoing early NETosis (cytospin) [4] | Disease severity (experimental sepsis) | NETosis (experimental sepsis) | Survival (experimental sepsis)
poly (I:C) | induces NETosis | 2 fold | – | – | – | – | – | – | –
KAVLTIDEKGTEAAGAMFLEAIPMSIPPEVKFNKPFVFLMIEQNTKSPLFMGKVVNPTQK (listed as Homo sapiens) [nNIF] | – | – | significantly decreases NETosis; also recorded: inhibits NETs induced by COVID-19 plasma | clearly observed | clearly observed | very good efficacy | decreased disease severity | decrease in NETosis | improved survival
